Our source for the inhibition values is EP4467141A1, “PYRAZOLO-QUINOLINES AS SELECTIVE INHIBITORS OF GENOTOXIC STRESS-INDUCED IKK/NF- KB PATHWAYS FOR CANCER THERAPY” (Max-Delbrück-Centrum für Molekulare Medizin in der …, priority 2023, dated 2024).

As a reminder, the inhibition is the change of the read-out against control, counted positive when it falls.

SMILES strings stand for the structures.

Test in all cases: Kinase panel study
Common to all, as to format: biochemical
What all share (details): read-out: Percentage of inhibition; for inhibition at 1 µM: 1000nM; for inhibition at 10 µM: 10000nM

For one experiment, the target named is T1, PRKD1 (PKC mu) (Homo sapiens, UniProt Q15139).
T1 construct: purchased Thermo Fisher Scientific
T1 sequence (Q15139 1-912): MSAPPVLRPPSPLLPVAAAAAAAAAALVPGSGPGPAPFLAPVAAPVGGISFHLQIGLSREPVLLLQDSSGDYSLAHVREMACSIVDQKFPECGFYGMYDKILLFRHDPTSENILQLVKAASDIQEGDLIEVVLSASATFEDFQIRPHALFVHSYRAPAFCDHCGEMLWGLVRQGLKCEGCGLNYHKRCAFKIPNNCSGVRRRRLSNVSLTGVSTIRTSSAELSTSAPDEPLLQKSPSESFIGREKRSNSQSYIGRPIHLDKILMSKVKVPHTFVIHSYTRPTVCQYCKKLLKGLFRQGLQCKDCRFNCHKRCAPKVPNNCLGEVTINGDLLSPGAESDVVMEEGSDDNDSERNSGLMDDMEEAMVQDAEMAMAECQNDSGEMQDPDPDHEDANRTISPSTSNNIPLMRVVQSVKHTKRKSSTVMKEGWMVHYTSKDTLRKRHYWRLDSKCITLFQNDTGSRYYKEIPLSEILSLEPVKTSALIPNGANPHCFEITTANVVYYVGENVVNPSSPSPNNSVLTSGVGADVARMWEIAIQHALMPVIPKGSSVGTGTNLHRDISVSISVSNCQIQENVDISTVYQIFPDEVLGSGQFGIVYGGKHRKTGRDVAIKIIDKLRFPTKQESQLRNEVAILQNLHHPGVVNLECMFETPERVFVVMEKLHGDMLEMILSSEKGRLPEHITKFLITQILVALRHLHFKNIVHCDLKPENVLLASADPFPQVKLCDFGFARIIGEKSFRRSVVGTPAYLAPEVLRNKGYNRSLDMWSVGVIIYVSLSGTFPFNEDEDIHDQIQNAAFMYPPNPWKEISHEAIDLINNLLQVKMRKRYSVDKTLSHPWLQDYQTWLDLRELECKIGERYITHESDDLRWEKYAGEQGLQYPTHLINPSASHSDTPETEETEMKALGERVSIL
An outline of the steps:
(§1)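 Kinase inhibition was determined by a contract provider in cell-free ZLyte or Adapta assays. Results are expressed as % inhibition at 10 or 1 µM.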

The next experiment concerns the target T2, PLK3 (Homo sapiens, UniProt Q9H4B4).
T2 construct: purchased Thermo Fisher Scientific
A digest of the protocol:
as §1

In another experiment the target is T3, DAPK3 (ZIPK) (Homo sapiens, UniProt O43293).
T3 construct: purchased Thermo Fisher Scientific
A digest of the protocol: as §1

A further experiment deals with T4, NUAK1 (ARK5) (Homo sapiens, UniProt O60285).
T4 construct: purchased Thermo Fisher Scientific
T4 sequence (O60285 1-661): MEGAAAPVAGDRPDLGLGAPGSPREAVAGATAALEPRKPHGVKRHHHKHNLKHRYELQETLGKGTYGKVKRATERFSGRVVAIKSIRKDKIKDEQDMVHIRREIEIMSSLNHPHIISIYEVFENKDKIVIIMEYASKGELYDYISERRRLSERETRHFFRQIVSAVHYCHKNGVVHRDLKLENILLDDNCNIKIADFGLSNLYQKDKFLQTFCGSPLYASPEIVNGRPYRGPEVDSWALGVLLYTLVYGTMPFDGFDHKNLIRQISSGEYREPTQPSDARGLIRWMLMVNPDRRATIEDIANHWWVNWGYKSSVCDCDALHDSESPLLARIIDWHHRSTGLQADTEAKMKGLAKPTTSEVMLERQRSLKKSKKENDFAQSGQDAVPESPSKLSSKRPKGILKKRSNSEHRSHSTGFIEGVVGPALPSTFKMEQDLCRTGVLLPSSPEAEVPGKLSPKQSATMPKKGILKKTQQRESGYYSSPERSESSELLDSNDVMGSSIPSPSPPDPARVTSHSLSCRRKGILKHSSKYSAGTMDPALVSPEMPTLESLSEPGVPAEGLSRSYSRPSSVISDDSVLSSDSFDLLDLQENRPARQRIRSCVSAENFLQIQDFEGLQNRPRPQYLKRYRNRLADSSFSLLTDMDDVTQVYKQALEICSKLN
A digest of the protocol: as §1

T3 sequence (O43293 whole entry): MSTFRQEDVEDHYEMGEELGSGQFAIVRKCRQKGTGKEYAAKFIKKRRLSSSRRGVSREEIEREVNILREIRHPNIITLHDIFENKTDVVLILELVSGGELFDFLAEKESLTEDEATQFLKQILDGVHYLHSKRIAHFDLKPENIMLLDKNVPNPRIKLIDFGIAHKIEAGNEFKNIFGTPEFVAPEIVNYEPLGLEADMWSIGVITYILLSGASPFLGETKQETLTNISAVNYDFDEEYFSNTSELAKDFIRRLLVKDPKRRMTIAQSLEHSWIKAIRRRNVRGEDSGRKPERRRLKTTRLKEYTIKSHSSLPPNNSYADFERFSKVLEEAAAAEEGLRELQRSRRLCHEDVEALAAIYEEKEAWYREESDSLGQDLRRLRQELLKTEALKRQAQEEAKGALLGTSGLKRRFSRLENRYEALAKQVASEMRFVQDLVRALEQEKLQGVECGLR
T2 sequence (Q9H4B4 whole entry): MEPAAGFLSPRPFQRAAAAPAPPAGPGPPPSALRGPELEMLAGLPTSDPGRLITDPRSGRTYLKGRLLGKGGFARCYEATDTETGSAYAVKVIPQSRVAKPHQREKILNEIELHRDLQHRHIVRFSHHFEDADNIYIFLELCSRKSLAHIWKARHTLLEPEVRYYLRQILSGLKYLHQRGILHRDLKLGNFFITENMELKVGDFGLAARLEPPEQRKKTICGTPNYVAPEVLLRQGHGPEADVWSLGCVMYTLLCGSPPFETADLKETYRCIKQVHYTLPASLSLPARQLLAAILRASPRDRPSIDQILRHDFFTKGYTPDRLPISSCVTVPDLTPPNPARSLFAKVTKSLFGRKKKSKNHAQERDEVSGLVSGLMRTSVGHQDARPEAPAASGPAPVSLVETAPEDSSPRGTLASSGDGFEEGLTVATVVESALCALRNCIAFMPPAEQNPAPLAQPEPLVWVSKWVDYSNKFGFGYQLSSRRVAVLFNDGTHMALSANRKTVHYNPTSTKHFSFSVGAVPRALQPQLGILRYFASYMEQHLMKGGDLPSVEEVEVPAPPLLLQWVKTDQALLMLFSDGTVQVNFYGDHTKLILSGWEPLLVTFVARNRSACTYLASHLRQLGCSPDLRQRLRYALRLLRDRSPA

In the case of `COc1ccc2c(c1OC)c(=O)n1c3ccc(O)cc3c3ccnc2c31` [MW01, 5-Hydroxy-10,11-dimethoxy-9H-benzo[c]indolo[3,2,1-ij][1,5]naphthyridin-9-one], the inhibition at 1 µM at PRKD1 (PKC mu) stood at 28%; on PLK3, 6%; on DAPK3 (ZIPK), 2%; at NUAK1 (ARK5), 48%. In addition, the inhibition at 10 µM worked out at 49% at PRKD1 (PKC mu), 23% at PLK3, 9% at DAPK3 (ZIPK) and 66% on NUAK1 (ARK5).
Consider `COc1ccc2cc3c(N)nn(C(=O)c4cccc(N(C)C)c4)c3nc2c1` [MW05, (3-Amino-7-methoxypyrazolo[3,4-b]quinolin-1-yl)-[3-(dimethylamino)phenyl]methanone], for which the inhibition at 1 µM on PRKD1 (PKC mu) came to 5%; at PLK3 it was 5%; at DAPK3 (ZIPK), 2%; at NUAK1 (ARK5), 6%. Further, the inhibition at 10 µM on PRKD1 (PKC mu) was 9%; at PLK3, 12%; on DAPK3 (ZIPK), -3%; at NUAK1 (ARK5), 11%.
